Source: the NIST ThermoML archive (doi:10.1016/j.jct.2007.08.002)
Values joined by “and” are separate entries in the source; they are usually repeats but may differ in a detail not shown here. Identical values can stand only once.

Assay: molar heat capacity at saturation pressure

NC12CC3CC(CC(C3)C1)C2 [tricyclo(3.3.1.1:3,7)decan-1-amine]
Settings | molar heat capacity
196.06 K, Crystal 3, Small (less than 1 g) adiabatic calorimetry | 135.44 J/K/mol
197.25 K, Crystal 3, Small (less than 1 g) adiabatic calorimetry | 136.86 J/K/mol
197.97 K, Crystal 3, Small (less than 1 g) adiabatic calorimetry | 137.6 J/K/mol
199.25 K, Crystal 3, Small (less than 1 g) adiabatic calorimetry | 139.1 J/K/mol
199.88 K, Crystal 3, Small (less than 1 g) adiabatic calorimetry | 139.77 J/K/mol
200.91 K, Crystal 3, Small (less than 1 g) adiabatic calorimetry | 140.93 J/K/mol
201.79 K, Crystal 3, Small (less than 1 g) adiabatic calorimetry | 142.09 J/K/mol
202.24 K, Crystal 3, Small (less than 1 g) adiabatic calorimetry | 142.51 J/K/mol
203.56 K, Crystal 3, Small (less than 1 g) adiabatic calorimetry | 144.09 J/K/mol
204.88 K, Crystal 3, Small (less than 1 g) adiabatic calorimetry | 145.75 J/K/mol
206.19 K, Crystal 3, Small (less than 1 g) adiabatic calorimetry | 147.58 J/K/mol
207.51 K, Crystal 3, Small (less than 1 g) adiabatic calorimetry | 149.24 J/K/mol
207.53 K, Crystal 3, Small (less than 1 g) adiabatic calorimetry | 149.33 J/K/mol
208.81 K, Crystal 3, Small (less than 1 g) adiabatic calorimetry | 151.16 J/K/mol
209.45 K, Crystal 3, Small (less than 1 g) adiabatic calorimetry | 152.07 J/K/mol
210.11 K, Crystal 3, Small (less than 1 g) adiabatic calorimetry | 152.9 J/K/mol
211.36 K, Crystal 3, Small (less than 1 g) adiabatic calorimetry | 154.9 J/K/mol
211.41 K, Crystal 3, Small (less than 1 g) adiabatic calorimetry | 154.9 J/K/mol
212.7 K, Crystal 3, Small (less than 1 g) adiabatic calorimetry | 156.73 J/K/mol
213.28 K, Crystal 3, Small (less than 1 g) adiabatic calorimetry | 157.97 J/K/mol
213.99 K, Crystal 3, Small (less than 1 g) adiabatic calorimetry | 158.89 J/K/mol
215.2 K, Crystal 3, Small (less than 1 g) adiabatic calorimetry | 161.05 J/K/mol
215.27 K, Crystal 3, Small (less than 1 g) adiabatic calorimetry | 161.05 J/K/mol
216.55 K, Crystal 3, Small (less than 1 g) adiabatic calorimetry | 163.3 J/K/mol
217.12 K, Crystal 3, Small (less than 1 g) adiabatic calorimetry | 164.54 J/K/mol
217.82 K, Crystal 3, Small (less than 1 g) adiabatic calorimetry | 165.71 J/K/mol
219.04 K, Crystal 3, Small (less than 1 g) adiabatic calorimetry | 168.28 J/K/mol
219.1 K, Crystal 3, Small (less than 1 g) adiabatic calorimetry | 168.28 J/K/mol
220.36 K, Crystal 3, Small (less than 1 g) adiabatic calorimetry | 170.95 J/K/mol
220.96 K, Crystal 3, Small (less than 1 g) adiabatic calorimetry | 172.36 J/K/mol
221.61 K, Crystal 3, Small (less than 1 g) adiabatic calorimetry | 173.61 J/K/mol
222.86 K, Crystal 3, Small (less than 1 g) adiabatic calorimetry | 176.6 J/K/mol
222.88 K, Crystal 3, Small (less than 1 g) adiabatic calorimetry | 176.77 J/K/mol
224.1 K, Crystal 3, Small (less than 1 g) adiabatic calorimetry | 179.84 J/K/mol
224.8 K, Crystal 3, Small (less than 1 g) adiabatic calorimetry | 181.75 J/K/mol
225.33 K, Crystal 3, Small (less than 1 g) adiabatic calorimetry | 183.17 J/K/mol
226.55 K, Crystal 3, Small (less than 1 g) adiabatic calorimetry | 186.91 J/K/mol
226.72 K, Crystal 3, Small (less than 1 g) adiabatic calorimetry | 187.57 J/K/mol
227.76 K, Crystal 3, Small (less than 1 g) adiabatic calorimetry | 190.82 J/K/mol
228.63 K, Crystal 3, Small (less than 1 g) adiabatic calorimetry | 194.14 J/K/mol
228.97 K, Crystal 3, Small (less than 1 g) adiabatic calorimetry | 195.22 J/K/mol
230.16 K, Crystal 3, Small (less than 1 g) adiabatic calorimetry | 200.21 J/K/mol
230.54 K, Crystal 3, Small (less than 1 g) adiabatic calorimetry | 202.12 J/K/mol
231.34 K, Crystal 3, Small (less than 1 g) adiabatic calorimetry | 205.78 J/K/mol
232.45 K, Crystal 3, Small (less than 1 g) adiabatic calorimetry | 211.52 J/K/mol
232.51 K, Crystal 3, Small (less than 1 g) adiabatic calorimetry | 211.69 J/K/mol
233.67 K, Crystal 3, Small (less than 1 g) adiabatic calorimetry | 218.01 J/K/mol
234.36 K, Crystal 3, Small (less than 1 g) adiabatic calorimetry | 222.33 J/K/mol
234.81 K, Crystal 3, Small (less than 1 g) adiabatic calorimetry | 225.16 J/K/mol
235.93 K, Crystal 3, Small (less than 1 g) adiabatic calorimetry | 233.22 J/K/mol
236.25 K, Crystal 3, Small (less than 1 g) adiabatic calorimetry | 235.72 J/K/mol
237.04 K, Crystal 3, Small (less than 1 g) adiabatic calorimetry | 242.28 J/K/mol
238.14 K, Crystal 3, Small (less than 1 g) adiabatic calorimetry | 251.85 J/K/mol and 251.6 J/K/mol
239.22 K, Crystal 3, Small (less than 1 g) adiabatic calorimetry | 261.49 J/K/mol
240.04 K, Crystal 3, Small (less than 1 g) adiabatic calorimetry | 267.14 J/K/mol
240.28 K, Crystal 3, Small (less than 1 g) adiabatic calorimetry | 268.64 J/K/mol
241.32 K, Crystal 3, Small (less than 1 g) adiabatic calorimetry | 272.38 J/K/mol
241.94 K, Crystal 2 | 272.22 J/K/mol
242.37 K, Crystal 2 | 270.55 J/K/mol
243.42 K, Crystal 2 | 261.16 J/K/mol
243.89 K, Crystal 2 | 258.16 J/K/mol
244.49 K, Crystal 2 | 249.93 J/K/mol
245.89 K, Crystal 2 | 240.12 J/K/mol
247.88 K, Crystal 2 | 229.23 J/K/mol
249.84 K, Crystal 2 | 225.07 J/K/mol
251.78 K, Crystal 2 | 223.16 J/K/mol
253.73 K, Crystal 2 | 223.33 J/K/mol
255.66 K, Crystal 2 | 225.49 J/K/mol
257.59 K, Crystal 2 | 226.9 J/K/mol
259.52 K, Crystal 2 | 229.98 J/K/mol
261.45 K, Crystal 2 | 233.3 J/K/mol
263.38 K, Crystal 2 | 237.13 J/K/mol
265.31 K, Crystal 2 | 241.62 J/K/mol
267.23 K, Crystal 2 | 247.19 J/K/mol
269.16 K, Crystal 2 | 252.76 J/K/mol
271.09 K, Crystal 2 | 258.66 J/K/mol
273 K, Crystal 2 | 272.05 J/K/mol
274.91 K, Crystal 2 | 282.28 J/K/mol
276.81 K, Crystal 2 | 299.57 J/K/mol
278.68 K, Crystal 2 | 329.42 J/K/mol
280.53 K, Crystal 2 | 365.67 J/K/mol
282.42 K, Crystal 2 | 373.74 J/K/mol
288.85 K, Crystal 1, Small (less than 1 g) adiabatic calorimetry | 291.09 J/K/mol
293.37 K, Crystal 1, Small (less than 1 g) adiabatic calorimetry | 265.9 J/K/mol
295.36 K, Crystal 1, Small (less than 1 g) adiabatic calorimetry | 265.81 J/K/mol
297.3 K, Crystal 1, Small (less than 1 g) adiabatic calorimetry | 265.98 J/K/mol
299.23 K, Crystal 1, Small (less than 1 g) adiabatic calorimetry | 266.56 J/K/mol
301.17 K, Crystal 1, Small (less than 1 g) adiabatic calorimetry | 266.89 J/K/mol
303.1 K, Crystal 1, Small (less than 1 g) adiabatic calorimetry | 267.48 J/K/mol
305.04 K, Crystal 1, Small (less than 1 g) adiabatic calorimetry | 267.89 J/K/mol
306.98 K, Crystal 1, Small (less than 1 g) adiabatic calorimetry | 268.56 J/K/mol
308.92 K, Crystal 1, Small (less than 1 g) adiabatic calorimetry | 268.89 J/K/mol
309.23 K, Crystal 1, Small (less than 1 g) adiabatic calorimetry | 268.97 J/K/mol
310.85 K, Crystal 1, Small (less than 1 g) adiabatic calorimetry | 268.89 J/K/mol
311.41 K, Crystal 1, Small (less than 1 g) adiabatic calorimetry | 269.47 J/K/mol
312.79 K, Crystal 1, Small (less than 1 g) adiabatic calorimetry | 269.39 J/K/mol
313.59 K, Crystal 1, Small (less than 1 g) adiabatic calorimetry | 269.97 J/K/mol
314.73 K, Crystal 1, Small (less than 1 g) adiabatic calorimetry | 269.97 J/K/mol
315.77 K, Crystal 1, Small (less than 1 g) adiabatic calorimetry | 270.14 J/K/mol
316.67 K, Crystal 1, Small (less than 1 g) adiabatic calorimetry | 270.05 J/K/mol
317.96 K, Crystal 1, Small (less than 1 g) adiabatic calorimetry | 270.55 J/K/mol
318.61 K, Crystal 1, Small (less than 1 g) adiabatic calorimetry | 270.8 J/K/mol
320.14 K, Crystal 1, Small (less than 1 g) adiabatic calorimetry | 270.97 J/K/mol
320.55 K, Crystal 1, Small (less than 1 g) adiabatic calorimetry | 271.05 J/K/mol
322.32 K, Crystal 1, Small (less than 1 g) adiabatic calorimetry | 271.47 J/K/mol
324.44 K, Crystal 1, Small (less than 1 g) adiabatic calorimetry | 271.8 J/K/mol
324.5 K, Crystal 1, Small (less than 1 g) adiabatic calorimetry | 272.13 J/K/mol
326.39 K, Crystal 1, Small (less than 1 g) adiabatic calorimetry | 272.55 J/K/mol
326.7 K, Crystal 1, Small (less than 1 g) adiabatic calorimetry | 272.05 J/K/mol
328.33 K, Crystal 1, Small (less than 1 g) adiabatic calorimetry | 272.71 J/K/mol
328.88 K, Crystal 1, Small (less than 1 g) adiabatic calorimetry | 272.88 J/K/mol
330.27 K, Crystal 1, Small (less than 1 g) adiabatic calorimetry | 273.05 J/K/mol
331.06 K, Crystal 1, Small (less than 1 g) adiabatic calorimetry | 273.71 J/K/mol
332.22 K, Crystal 1, Small (less than 1 g) adiabatic calorimetry | 273.55 J/K/mol
333.25 K, Crystal 1, Small (less than 1 g) adiabatic calorimetry | 273.88 J/K/mol
334.16 K, Crystal 1, Small (less than 1 g) adiabatic calorimetry | 273.8 J/K/mol
335.43 K, Crystal 1, Small (less than 1 g) adiabatic calorimetry | 274.38 J/K/mol
336.11 K, Crystal 1, Small (less than 1 g) adiabatic calorimetry | 274.21 J/K/mol
337.62 K, Crystal 1, Small (less than 1 g) adiabatic calorimetry | 274.79 J/K/mol
338.05 K, Crystal 1, Small (less than 1 g) adiabatic calorimetry | 274.88 J/K/mol
339.81 K, Crystal 1, Small (less than 1 g) adiabatic calorimetry | 275.29 J/K/mol
340 K, Crystal 1, Small (less than 1 g) adiabatic calorimetry | 275.21 J/K/mol
341.94 K, Crystal 1, Small (less than 1 g) adiabatic calorimetry | 275.79 J/K/mol
342 K, Crystal 1, Small (less than 1 g) adiabatic calorimetry | 275.96 J/K/mol
343.89 K, Crystal 1, Small (less than 1 g) adiabatic calorimetry | 276.54 J/K/mol
344.18 K, Crystal 1, Small (less than 1 g) adiabatic calorimetry | 276.79 J/K/mol
345.84 K, Crystal 1, Small (less than 1 g) adiabatic calorimetry | 277.2 J/K/mol
346.37 K, Crystal 1, Small (less than 1 g) adiabatic calorimetry | 277.45 J/K/mol
347.78 K, Crystal 1, Small (less than 1 g) adiabatic calorimetry | 277.79 J/K/mol
348.56 K, Crystal 1, Small (less than 1 g) adiabatic calorimetry | 278.2 J/K/mol
349.73 K, Crystal 1, Small (less than 1 g) adiabatic calorimetry | 278.37 J/K/mol
350.75 K, Crystal 1, Small (less than 1 g) adiabatic calorimetry | 279.03 J/K/mol
351.68 K, Crystal 1, Small (less than 1 g) adiabatic calorimetry | 278.87 J/K/mol
352.94 K, Crystal 1, Small (less than 1 g) adiabatic calorimetry | 279.78 J/K/mol
353.63 K, Crystal 1, Small (less than 1 g) adiabatic calorimetry | 279.37 J/K/mol
355.12 K, Crystal 1, Small (less than 1 g) adiabatic calorimetry | 280.28 J/K/mol
355.58 K, Crystal 1, Small (less than 1 g) adiabatic calorimetry | 280.45 J/K/mol
357.31 K, Crystal 1, Small (less than 1 g) adiabatic calorimetry | 281.03 J/K/mol
357.53 K, Crystal 1, Small (less than 1 g) adiabatic calorimetry | 281.03 J/K/mol
359.47 K, Crystal 1, Small (less than 1 g) adiabatic calorimetry | 281.86 J/K/mol
359.5 K, Crystal 1, Small (less than 1 g) adiabatic calorimetry | 282.03 J/K/mol
361.42 K, Crystal 1, Small (less than 1 g) adiabatic calorimetry | 282.61 J/K/mol
361.71 K, Crystal 1, Small (less than 1 g) adiabatic calorimetry | 282.53 J/K/mol
363.37 K, Crystal 1, Small (less than 1 g) adiabatic calorimetry | 283.36 J/K/mol
363.9 K, Crystal 1, Small (less than 1 g) adiabatic calorimetry | 283.52 J/K/mol
365.32 K, Crystal 1, Small (less than 1 g) adiabatic calorimetry | 284.52 J/K/mol
366.08 K, Crystal 1, Small (less than 1 g) adiabatic calorimetry | 284.69 J/K/mol
367.27 K, Crystal 1, Small (less than 1 g) adiabatic calorimetry | 285.52 J/K/mol
